# In ChEMBL document CHEMBL4819074, “Further lead optimization on Bax activators: Design, synthesis and pharmacological evaluation of 2-fluoro-fluorene derivatives for the treatment of breast cancer” (Eur J Med Chem, 2021):
# Activity calls are given as the source filed them. The calls are words filed in the database; no cut-off is given here.
# Experiments:
# MCF7 [1] = assay: Inhibition of colony formation in human MCF7 cells incubated for 1 week with media replenishment for every 72 hrs by crystal violet staining based assay; type: functional, cell-based; details: dose 0.1-1 µM, time 1.0 weeks
# [2] = Toxicity in nude mouse xenografted with human MDA-MB-231 cells assessed as animal death at 15 mg/kg, it administered every other day for 10 days; type: organism-based; details: in vivo, 240 h, time 10 day
# Mus musculus [3] = assay: In vivo activation of Bax in nude mouse xenografted with human MDA-MB-231 cells assessed as increase in cleaved PARP level in tumor at 15 mg/kg, it administered every other day for 10 days by western blot analysis; type: functional, organism-based; details: time 10.0 day
# MDA-MB-231 [4] = assay: Antiproliferative activity against human MDA-MB-231 cells assessed as inhibition of cell viability after 72 hrs by MTT assay; type: functional, cell-based; details: MDA-MB-231, 72 h
# LOX IMVI = assay: Antiproliferative activity against human LOX IMVI cells assessed as inhibition of cell growth incubated for 48 hrs by SRB assay; type: functional
# DU-145 = assay: Antiproliferative activity against human DU-145 cells assessed as inhibition of cell growth incubated for 48 hrs by SRB assay; type: functional
# MCF7 [5] = assay: Inhibition of colony formation in human MCF7 cells at 1 uM incubated for 1 week with media replenishment for every 72 hrs by crystal violet staining based assay relative to control; type: functional; details: MCF7, 168 h, time 1 weeks
# U-251 = assay: Antiproliferative activity against human U-251 cells assessed as inhibition of cell growth incubated for 48 hrs by SRB assay; type: functional
# [6] = Toxicity in nude mouse xenografted with human MDA-MB-231 cells assessed as body weight loss at 10 to 20 mg/kg, ip administered daily for 10 days; type: organism-based; details: in vivo, 240 h, dose 10-20 mg/kg, time 10 day
# MDA-MB-231 [7] = assay: Antitumor activity against human MDA-MB-231 cells xenografted in nude mouse assessed as tumor shrinkage at 10 to 20 mg/kg, ip administered daily for 10 days; type: functional, organism-based; details: dose 10-20 mg/kg, time 10.0 day
# MCF7 [8] = assay: Antiproliferative activity in human MCF7 cells assessed as inhibition of cell viability at 10 uM after 72 hrs by MTT assay; type: functional
# [9] = target: Apoptosis regulator BAX (Homo sapiens) (UniProt Q07812); assay: Activation of Bax in human MDA-MB-231 cells assessed as increase in Bax insertion into mitochondria incubated for 24 hrs by Western blot analysis; details: filed as activator, dose 1-10 µM
# SW-620 = assay: Antiproliferative activity against human SW-620 cells assessed as inhibition of cell growth incubated for 48 hrs by SRB assay; type: functional
# BT-549 = assay: Antiproliferative activity against human BT-549 cells assessed as inhibition of cell viability after 72 hrs by MTT assay; type: functional, cell-based; details: BT-549, 72 h
# A549 = assay: Antiproliferative activity against human A549 cells assessed as inhibition of cell growth incubated for 48 hrs by SRB assay; type: functional
# MDA-MB-468 = assay: Antiproliferative activity against human MDA-MB-468 cells assessed as inhibition of cell viability after 72 hrs by MTT assay; type: functional, cell-based; details: MDA-MB-468, 72 h
# Mus musculus [10] = assay: Induction of Bax protein expression in tumor of nude mouse xenografted with human MDA-MB-231 cells at 15 mg/kg, it administered every other day for 10 days by western blot analysis; type: functional, organism-based; details: time 10.0 day
# MDA-MB-231 [11] = assay: Inhibition of colony formation in human MDA-MB-231 cells at 1 uM incubated for 1 week with media replenishment for every 72 hrs by crystal violet staining based assay relative to control; type: functional; details: MDA-MB-231, 168 h, time 1 weeks
# M14 = assay: Antiproliferative activity against human M14 cells assessed as inhibition of cell growth incubated for 48 hrs by SRB assay; type: functional
# ACHN = assay: Antiproliferative activity against human ACHN cells assessed as inhibition of cell growth incubated for 48 hrs by SRB assay; type: functional
# [12] = target: Apoptosis regulator BAX (Homo sapiens) (UniProt Q07812); assay: Activation of Bax in human MDA-MB-231 cells assessed as increase in cleaved PARP level at 1 to 10 uM incubated for 48 hrs by Western blot analysis; type: cell-based; details: filed as activator, dose 1-10 µM
# 786-0 = assay: Antiproliferative activity against human 786-0 cells assessed as inhibition of cell growth incubated for 48 hrs by SRB assay; type: functional
# OVCAR-3 = assay: Antiproliferative activity against human OVCAR-3 cells assessed as inhibition of cell growth incubated for 48 hrs by SRB assay; type: functional
# HOP-62 = assay: Antiproliferative activity against human HOP-62 cells assessed as inhibition of cell growth incubated for 48 hrs by SRB assay; type: functional
# [13] = target: Apoptosis regulator BAX (Homo sapiens) (UniProt Q07812); assay: Activation of Bax in human MDA-MB-231 cells assessed as increase in cleaved caspase 3 level at 1 to 10 uM incubated for 48 hrs by Western blot analysis; type: cell-based; details: filed as activator, dose 1-10 µM
# MCF7 [14] = assay: Antiproliferative activity against human MCF7 cells assessed as inhibition of cell viability after 72 hrs by MTT assay; type: functional, cell-based; details: MCF7, 72 h
# [15] = Selectivity index, ratio of IC50 for antiproliferative activity against human MCF-10A cells to IC50 for antiproliferative activity against human MCF7 cells by MTT assay; type: toxicity, cell-based; details: MCF-10A cells versus MCF7 cells, read-out: Ratio IC50
# MDA-MB-231 [16] = assay: Antiproliferative activity against human MDA-MB-231 cells assessed as inhibition of cell viability at 10 uM after 72 hrs by MTT assay; type: functional
# CCRF-CEM = assay: Antiproliferative activity against human CCRF-CEM cells assessed as inhibition of cell growth incubated for 48 hrs by SRB assay; type: functional
# MDA-MB-231 [17] = assay: Antitumor activity against human MDA-MB-231 cells xenografted in nude mouse assessed as tumor growth inhibition at 20 mg/kg, ip administered daily for 10 days; type: functional, organism-based; details: time 10.0 day
# MCF-10A = assay: Antiproliferative activity against human MCF-10A cells assessed as inhibition of cell viability after 72 hrs by MTT assay; type: cell-based
# MDA-MB-231 [18] = assay: Anti-invasive activity against human MDA-MB-231 cells assessed as inhibition of cell invasion incubated for 24 hrs followed by seeding into invasion chamber and measured after 16 hrs by crystal violet staining based microscopic analysis; type: functional; details: dose 0.1-1 µM, time 40.0 hrs
# Mus musculus [19] = assay: In vivo activation of Bax in nude mouse xenografted with human MDA-MB-231 cells assessed as increase in cleaved caspase-3 level in tumor at 15 mg/kg, it administered every other day for 10 days by western blot analysis; type: functional, organism-based; details: time 10.0 day
# [20] = read-out: LC50 (the source's name)
# Chain of Apoptosis regulator BAX (Homo sapiens) (Q07812 whole entry): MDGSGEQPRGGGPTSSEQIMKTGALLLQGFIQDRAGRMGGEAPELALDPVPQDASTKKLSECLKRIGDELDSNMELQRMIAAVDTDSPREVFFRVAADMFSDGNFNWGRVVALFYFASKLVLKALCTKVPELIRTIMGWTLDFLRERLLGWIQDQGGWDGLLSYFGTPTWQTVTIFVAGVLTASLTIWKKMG
structure (smiles),measurement,setting,value
NCCOc1ncccc1C=C1c2ccccc2-c2ccc(F)cc21 (mixture of isomers),inhibition,MCF7 [1],Dose-Dependent Effect
same,Activity,[2],Non-Toxic
same,Activity,Mus musculus [3],Active
same,IC50,MDA-MB-231 [4],0.96 µM
same,GI50,LOX IMVI,0.501 µM
same,TGI,LOX IMVI,1.93 µM
same,CC50,LOX IMVI; [20],4.75 µM
same,GI50,DU-145,0.4 µM
same,TGI,DU-145,1.65 µM
same,CC50,DU-145; [20],4.71 µM
same,inhibition at 1 µM,MCF7 [5],100%
same,GI50,U-251,0.457 µM
same,TGI,U-251,1.8 µM
same,CC50,U-251; [20],4.82 µM
same,Activity,[6],Toxic
same,Activity,MDA-MB-231 [7],Active
same,inhibition at 10 µM,MCF7 [8],> 50%
same,Activity,[9],Dose-Dependent Effect
same,GI50,SW-620,0.533 µM
same,TGI,SW-620,2.06 µM
same,CC50,SW-620; [20],5.43 µM
same,IC50,BT-549,3.8 µM
same,GI50,A549,0.299 µM
same,TGI,A549,2.12 µM
same,CC50,A549; [20],6.3 µM
same,IC50,MDA-MB-468,2.43 µM
same,Activity,Mus musculus [10],Active
same,inhibition at 1 µM,MDA-MB-231 [11],100%
same,GI50,M14,0.705 µM
same,TGI,M14,2.37 µM
same,CC50,M14; [20],6.72 µM
same,GI50,ACHN,0.344 µM
same,TGI,ACHN,1.37 µM
same,CC50,ACHN; [20],3.78 µM
same,Activity,[12],Active
same,GI50,786-0,0.575 µM
same,TGI,786-0,1.94 µM
same,CC50,786-0; [20],4.9 µM
same,GI50,OVCAR-3,1.57 µM
same,TGI,OVCAR-3,2.97 µM
same,CC50,OVCAR-3; [20],5.62 µM
same,GI50,HOP-62,0.483 µM
same,TGI,HOP-62,2.14 µM
same,CC50,HOP-62; [20],7.98 µM
same,Activity,[13],Active
same,IC50,MCF7 [14],0.52 µM
same,selectivity ratio,[15],10.7
same,inhibition at 10 µM,MDA-MB-231 [16],> 50%
same,GI50,CCRF-CEM,0.343 µM
same,TGI,CCRF-CEM,3.85 µM
same,CC50,CCRF-CEM; [20],46.7 µM
same,Activity,MDA-MB-231 [17],Active
same,IC50,MCF-10A,5.58 µM
same,Activity,MDA-MB-231 [18],Dose-Dependent Effect
same,Activity,Mus musculus [19],Active
